Earlier results, collected in US9504728B2, “Dosage form” (priority 2011, dated 2016).
Read-outs that look alike come from different tables or passages of the source.

Legend:
HBV = conditions: Ptak et al. 2008; read-out: IC50 against HBV; cited from earlier work
HIV-1 = conditions: Steyn et al., 2006, cited from earlier work

C/C=C/C[C@@H](C)[C@@H](O)[C@H]1C(=O)N[C@@H](CC)C(=O)N(C)[C@H](C)C(=O)N(CC)[C@@H](C(C)C)C(=O)N[C@@H](C(C)C)C(=O)N(C)[C@@H](CC(C)C)C(=O)N[C@@H](C)C(=O)N[C@H](C)C(=O)N(C)[C@@H](CC(C)C)C(=O)N(C)[C@@H](CC(C)C)C(=O)N(C)[C@@H](C(C)C)C(=O)N1C [DEBIO-025]
IC50 (HBV): 4.1 µM
reduction of HIV-1 RNA levels (HIV-1; in nine patients): ≥ 0.5 log 10 copies/mL
reduction of HIV-1 RNA levels (HIV-1; in two patients): > 1 log 10 copies/mL
